Molecules are shown by their SMILES.

As a reminder, the IC50 is the concentration at which inhibition is half-maximal.

In this test the target is T1, human ACC2 (Homo sapiens, UniProt O00763).
T1 construct: made in house; host or cells: insect cells (baculoviral expression system)
T1 sequence (O00763 129-2458 limits assumed): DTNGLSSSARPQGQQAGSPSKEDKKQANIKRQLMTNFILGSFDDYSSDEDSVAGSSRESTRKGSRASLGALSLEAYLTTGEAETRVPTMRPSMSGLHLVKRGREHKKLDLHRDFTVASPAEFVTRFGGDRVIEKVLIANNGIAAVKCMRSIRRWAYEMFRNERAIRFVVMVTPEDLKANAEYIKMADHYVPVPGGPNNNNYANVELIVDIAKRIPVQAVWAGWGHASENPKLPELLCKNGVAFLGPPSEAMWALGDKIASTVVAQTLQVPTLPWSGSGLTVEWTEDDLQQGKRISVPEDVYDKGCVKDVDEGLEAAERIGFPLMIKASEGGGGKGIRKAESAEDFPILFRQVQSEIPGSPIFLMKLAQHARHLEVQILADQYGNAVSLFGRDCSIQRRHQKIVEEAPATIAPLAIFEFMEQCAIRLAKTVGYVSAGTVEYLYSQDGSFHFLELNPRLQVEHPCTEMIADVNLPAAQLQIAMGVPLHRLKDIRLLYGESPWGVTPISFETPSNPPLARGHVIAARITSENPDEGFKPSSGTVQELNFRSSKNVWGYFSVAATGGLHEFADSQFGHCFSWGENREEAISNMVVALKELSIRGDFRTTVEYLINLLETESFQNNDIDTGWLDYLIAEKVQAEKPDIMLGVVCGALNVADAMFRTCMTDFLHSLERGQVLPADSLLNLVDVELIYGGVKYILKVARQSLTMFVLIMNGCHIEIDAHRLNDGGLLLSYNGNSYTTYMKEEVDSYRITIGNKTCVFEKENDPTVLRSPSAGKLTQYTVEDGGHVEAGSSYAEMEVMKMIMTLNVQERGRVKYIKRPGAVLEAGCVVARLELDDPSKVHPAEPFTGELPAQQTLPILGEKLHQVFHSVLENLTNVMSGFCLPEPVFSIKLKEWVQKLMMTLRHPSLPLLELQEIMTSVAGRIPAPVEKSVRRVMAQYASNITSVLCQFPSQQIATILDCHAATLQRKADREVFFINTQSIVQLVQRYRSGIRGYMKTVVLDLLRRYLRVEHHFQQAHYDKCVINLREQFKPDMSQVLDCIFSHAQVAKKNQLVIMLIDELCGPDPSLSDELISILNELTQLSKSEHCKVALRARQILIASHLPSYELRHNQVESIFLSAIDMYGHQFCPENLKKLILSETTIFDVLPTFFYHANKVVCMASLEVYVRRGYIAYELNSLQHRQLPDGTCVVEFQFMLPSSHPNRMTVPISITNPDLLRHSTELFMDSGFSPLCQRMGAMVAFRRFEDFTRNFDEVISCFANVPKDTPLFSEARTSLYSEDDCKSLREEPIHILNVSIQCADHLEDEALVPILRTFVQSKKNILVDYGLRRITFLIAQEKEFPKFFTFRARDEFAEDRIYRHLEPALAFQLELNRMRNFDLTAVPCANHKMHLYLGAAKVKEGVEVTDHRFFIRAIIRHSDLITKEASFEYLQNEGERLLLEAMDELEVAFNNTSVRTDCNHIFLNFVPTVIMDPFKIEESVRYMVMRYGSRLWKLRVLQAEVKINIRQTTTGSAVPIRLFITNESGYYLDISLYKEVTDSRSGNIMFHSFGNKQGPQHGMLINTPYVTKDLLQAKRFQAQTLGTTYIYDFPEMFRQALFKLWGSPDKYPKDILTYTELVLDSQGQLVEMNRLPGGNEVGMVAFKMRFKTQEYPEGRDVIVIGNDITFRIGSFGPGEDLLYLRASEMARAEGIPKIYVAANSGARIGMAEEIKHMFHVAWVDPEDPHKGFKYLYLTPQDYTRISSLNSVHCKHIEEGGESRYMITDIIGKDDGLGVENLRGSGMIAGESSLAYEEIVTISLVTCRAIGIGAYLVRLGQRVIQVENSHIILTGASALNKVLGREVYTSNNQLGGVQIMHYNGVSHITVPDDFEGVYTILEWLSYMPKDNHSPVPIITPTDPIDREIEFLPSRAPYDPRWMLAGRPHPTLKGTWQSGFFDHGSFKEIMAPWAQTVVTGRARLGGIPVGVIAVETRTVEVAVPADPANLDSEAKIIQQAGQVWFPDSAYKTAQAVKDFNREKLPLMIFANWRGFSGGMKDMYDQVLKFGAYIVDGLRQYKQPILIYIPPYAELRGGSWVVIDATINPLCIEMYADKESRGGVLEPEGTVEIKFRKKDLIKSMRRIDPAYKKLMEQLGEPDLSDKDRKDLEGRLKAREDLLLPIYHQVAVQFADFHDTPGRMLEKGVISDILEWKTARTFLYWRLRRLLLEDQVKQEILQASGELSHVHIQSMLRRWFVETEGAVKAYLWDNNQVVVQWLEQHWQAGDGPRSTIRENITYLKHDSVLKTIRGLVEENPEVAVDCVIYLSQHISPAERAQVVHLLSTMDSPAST
In words: ACC2 assay, spectrophotometric 384 well assay (NADH-linked, coupled lactate dehydrogenase/pyruvate kinase). The test is classed as biochemical. The following applies: ACC2 assay, hACC2 construct lacking 128 N-terminal amino acids, 25° C., 340 nm; read-out: IC50. A digest of the protocol:
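ADP output tracked via pyruvate kinase/lactate dehydrogenase NADH oxidation, slope at 340 nm over 15 min, 25° C, with 500 μM ATP and 200 μM each acetyl-CoA and NADH. Enzyme: insect-cell-expressed human ACC2, N-terminal 128 residues deleted; pH 7.5 Tris with citrate, KHCO3. IC50 from four-parameter regression versus vehicle and no-acetyl-CoA controls.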
Consider `CC(=O)N[C@@H](C)c1ccc(C2CCN(c3ccc(C4CC4)nc3)CC2)cc1` [Example 1.175], for which the half-inhibitory concentration (IC50) amounted to 1100 nM. Under `CCCOc1ccc(N2CCC(c3ccc([C@H](C)NC(=O)N(C)C)cc3)CC2)nc1` [Example 1.178] stands 170 nM; under `CCOc1ccc(N2CCC(c3ccc([C@H](C)NC(=O)N(C)C)cc3)CC2)nc1` [Example 1.179], 310 nM. With `CCOc1ccc(N2CCC(c3ccc([C@H](C)NC(C)=O)cc3)CC2)c(OCC)n1` [Example 1.180] the figure was 530 nM; with `CCCOc1ccc(N2CCC(c3ccc([C@H](C)NC(C)=O)cc3)CC2)c(C#N)n1` [Example 1.181], 90 nM. `CC(=O)N[C@@H](C)c1ccc(C2CCN(c3ccc(OCC4CC4)nc3C#N)CC2)cc1` [Example 1.183]: the 50% inhibitory concentration (IC50) is 150 nM. Consider `CC(=O)N[C@@H](C)c1ccc(C2CCN(c3cc4c(cc3F)OCCCO4)CC2)cc1` [Example 1.184], for which the IC50 amounted to 1200 nM. With `C[C@H](NC(=O)C1CC1)c1ccc(C2CCN(c3cc4c(cc3F)OCCCO4)CC2)cc1` [Example 1.185] the figure was 22100 nM; with `CC(=O)N[C@@H](C)c1ccc(C2CCN(c3ccc(OCc4ccoc4)cc3)CC2)cc1` [Example 1.186], 170 nM; with `CC(=O)N[C@@H](C)c1ccc(C2CCN(c3cccc(C(F)(F)F)c3)CC2)cc1` [Example 1.188], 80 nM. Under `CC(=O)N[C@@H](C)c1ccc(C2CCN(c3ccc(OC4CC4)cc3F)CC2)cc1` [Example 1.189] stands 60 nM. With `CCOc1cc(N2CCC(c3ccc([C@H](C)NC(C)=O)cc3)CC2)c(F)cn1` [Example 1.190] the figure was 1400 nM; with `CCOc1cc(N2CCC(c3ccc([C@H](C)NC(C)=O)cc3)CC2)ccn1` [Example 1.191], 390 nM; with `CC(=O)N[C@@H](C)c1ccc(C2CCN(c3ccc4c(c3F)OCCO4)CC2)cc1` [Example 1.192], 120 nM. For the compound `CCCOc1ccc(N2CCC(c3ccc(C(CC)NC(C)=O)cc3)CC2)cc1` (stereo not drawn) [Example 1.200], the IC50 was found to be 450 nM.

With `CCC(NC(C)=O)c1ccc(C2CCN(c3ccc4c(c3)OCCO4)CC2)cc1` (stereo not drawn) [Example 1.201], the concentration for half-maximal inhibition (IC50) came out at 4600 nM. Under `CCC(NC(C)=O)c1ccc(C2CCN(c3ccc(OCC4CC4)cc3F)CC2)cc1` (stereo not drawn) [Example 1.202] stands 1900 nM; under `CCC(NC(C)=O)c1ccc(C2CCN(c3ccc(OCC4CC4)cc3)CC2)cc1` (stereo not drawn) [Example 1.203], 620 nM; under `CCC(NC(C)=O)c1ccc(C2CCN(c3ccc(OC4CC4)cc3)CC2)cc1` (stereo not drawn) [Example 1.204], 450 nM. With `CCC(NC(C)=O)c1ccc(C2CCN(c3ccc(OCC4CC4(F)F)cc3)CC2)cc1` (stereo not drawn) [Example 1.205] the figure was 660 nM; with `CCOc1ccc(N2CCC(c3ccc(C(CC)NC(C)=O)cc3)CC2)cc1` (stereo not drawn) [Example 1.206], 4700 nM; with `CCOc1ccc(N2CCC(c3ccc(C(CC)NC(C)=O)cc3)CC2)c(F)c1` (stereo not drawn) [Example 1.207], 5100 nM.

As to `CCOc1ccc(N2CCC(c3ccc(CC(C)NC(C)=O)cc3)CC2)cc1` (stereo not drawn) [Example 2.1, N-(2-{4-[1-(4-Ethoxy-phenyl)-piperidin-4-yl]-phenyl}-1-methyl-ethyl)-acetamide], the half-inhibitory concentration (IC50) was determined as 2100 nM. With `CCCOc1ccc(N2CCC(c3ccc(CC(C)NC(C)=O)cc3)CC2)cc1` (stereo not drawn) [Example 2.3] the figure was 990 nM; with `CC(=O)NC(C)Cc1ccc(C2CCN(c3ccc4c(c3)OCCO4)CC2)cc1` (stereo not drawn) [Example 2.4], 1800 nM; with `CC(=O)NC(C)Cc1ccc(C2CCN(c3ccc(OCC(C)C)cc3)CC2)cc1` (stereo not drawn) [Example 2.7], 1600 nM.

As to `CC(=O)NC(C)Cc1ccc(C2CCN(c3ccc(OCC4CC4)cc3)CC2)cc1` (stereo not drawn) [Example 2.8], the IC50 turned out to be 960 nM. With `CC(=O)NC(C)Cc1ccc(C2CCN(c3ccc(OC4CC4)cc3)CC2)cc1` (stereo not drawn) [Example 2.9] the figure was 460 nM; with `CCOc1ccc(N2CCC(c3ccc(CC(C)NC(C)=O)cc3)CC2)c(C#N)c1` (stereo not drawn) [Example 2.11], 1300 nM; with `CCOc1ccc(N2CCC(c3ccc(CC(C)NC(C)=O)cc3)CC2)c(F)c1` (stereo not drawn) [Example 2.12], 530 nM.

Turning to `CC(=O)N[C@@H](C)c1ccc(C2CCN(c3cnn(Cc4ccccc4)c3)CC2)cc1` [Example 2.13], the IC50 was determined as 1900 nM.

`CC(=O)N[C@@H](C)c1ccc(C2CCN(c3ccc(Oc4ccccc4)nc3)CC2)cc1` [Example 3.1, (S)—N-{1-[4-(6′-Phenoxy-3,4,5,6-tetrahydro-2H-1,3′]bipyridinyl-4-yl)-phenyl′-ethyl}-acetamide]: the IC50 amounted to 360 nM. Under `COc1cc(N2CCC(c3ccc([C@H](C)NC(C)=O)cc3)CC2)ccn1` [Example 3.2] stands 330 nM; under `CC(=O)N[C@@H](C)c1ccc(C2CCN(c3ccnc(OC(C)C)c3)CC2)cc1` [Example 3.3], 110 nM.

Regarding `CCCCOc1cc(N2CCC(c3ccc([C@H](C)NC(C)=O)cc3)CC2)ccn1` [Example 3.4], the half-inhibitory concentration (IC50) was 110 nM. Under `CC(=O)N[C@@H](C)c1ccc(C2CCN(c3ccnc(Oc4cncnc4)c3)CC2)cc1` [Example 3.5] stands 590 nM; under `CC(=O)N[C@@H](C)c1ccc(C2CCN(c3ccc(OCC(C)C)cc3)CC2)cc1` [Example 3.7], 740 nM; under `CCCOc1ccc(N2CCC(c3ccc([C@H](C)NC(C)=O)cc3)CC2)cc1` [Example 3.8], 340 nM. Regarding `CCCn1ccc(N2CCC(c3ccc([C@H](C)NC(C)=O)cc3)CC2)cc1=O` [Example 3.9], the IC50 was found to be 13300 nM. Under `CC(=O)N[C@@H](C)c1ccc(C2CCN(c3ccc(Oc4ccccc4)nn3)CC2)cc1` [Example 3.10] stands 1600 nM; under `CCOc1ccc(N2CCC(c3ccc([C@H](C)NC(C)=O)cc3)CC2)nn1` [Example 3.11], 3000 nM. As to `CC(=O)N[C@@H](C)c1ccc(C2CCN(c3ccnc(Oc4ccccc4)c3)CC2)cc1` [Example 3.12], the IC50 was 60 nM.

Consider `CCCCOc1ccc(N2CCC(c3ccc([C@H](C)NC(C)=O)cc3)CC2)nn1` [Example 3.13], for which the concentration for half-maximal inhibition (IC50) came to 470 nM. Take `C[C@H](NC(=O)C1CC1)c1ccc(C2CCN(c3ccnc(Oc4ccccc4)c3)CC2)cc1` [Example 3.14]: the 50% inhibitory concentration (IC50) stood at 420 nM. With `CCOc1ccc(N2CCC(c3ccc(C4(NC(C)=O)CC4)cc3)CC2)cc1` [Example 3.20] the figure was 7400 nM.

With `CC(=O)N[C@@H](C)c1ccc(C2CCN(c3ncccc3C#N)CC2)cc1` [Example 4.1, (S)—N-(1-{4-[1-(3-Cyanopyridin-2-yl)piperidin-4-yl]phenyl}ethyl)acetamide], the half-maximal inhibitory concentration (IC50) came to 2500 nM.

As for `CC(=O)N[C@@H](C)c1ccc(C2CCN(c3nc4ccccc4s3)CC2)cc1` [Example 4.2], the half-inhibitory concentration (IC50) amounted to 1300 nM.

With `CC(=O)N[C@@H](C)c1ccc(C2CCN(c3ccc4ccccc4n3)CC2)cc1` [Example 4.3], the IC50 stood at 450 nM. Under `CC(=O)N[C@@H](C)c1ccc(C2CCN(c3cc(C)c4ccccc4n3)CC2)cc1` [Example 4.4] stands 1800 nM. For `CC(=O)N[C@@H](C)c1ccc(C2CCN(c3ccc(C#N)cn3)CC2)cc1` [Example 4.5], the half-maximal inhibitory concentration (IC50) came out at 2600 nM. Under `CC(=O)N[C@@H](C)c1ccc(C2CCN(c3cc(C(F)(F)F)ncn3)CC2)cc1` [Example 4.6] stands 1600 nM; under `CC(=O)N[C@@H](C)c1ccc(C2CCN(c3ncnc4ccccc34)CC2)cc1` [Example 4.7], 950 nM. Under `CC(=O)N[C@@H](C)c1ccc(C2CCN(c3nc(Cl)cc4ccccc34)CC2)cc1` [Example 4.8] stands 970 nM; under `CC(=O)N[C@@H](C)c1ccc(C2CCN(c3nc4ccccc4o3)CC2)cc1` [Example 4.9], 1900 nM; under `CC(=O)N[C@@H](C)c1ccc(C2CCN(c3ccc4cc(Cl)ccc4n3)CC2)cc1` [Example 4.10], 670 nM.

Regarding `CC(=O)N[C@@H](C)c1ccc(C2CCN(c3nccc(C(F)(F)F)n3)CC2)cc1` [Example 4.11], the half-inhibitory concentration (IC50) was found to be 850 nM. Under `CC(=O)N[C@@H](C)c1ccc(C2CCN(c3nc4ccccc4n3C)CC2)cc1` [Example 4.12] stands 11600 nM; under `CC(=O)N[C@@H](C)c1ccc(C2CCN(c3ccc(C(C)C)cn3)CC2)cc1` [Example 4.13], 3200 nM. With `CC(=O)N[C@@H](C)c1ccc(C2CCN(c3ccc4nnn(C)c4n3)CC2)cc1` [Example 4.14] the figure was 2400 nM. Under `CC(=O)N[C@@H](C)c1ccc(C2CCN(c3ccc(-c4ccccc4)cn3)CC2)cc1` [Example 4.15] stands 220 nM; under `COc1ccnc(N2CCC(c3ccc([C@H](C)NC(C)=O)cc3)CC2)c1` [Example 4.16], 1100 nM.

On to `CC(=O)N[C@@H](C)c1ccc(C2CCN(c3ccc(C(F)(F)F)cn3)CC2)cc1` [Example 4.17], for which the half-inhibitory concentration (IC50) was determined as 440 nM. With `CC(=O)N[C@@H](C)c1ccc(C2CCN(c3cc(C(F)(F)F)ccn3)CC2)cc1` [Example 4.18] the figure was 320 nM; with `CC(=O)N[C@@H](C)c1ccc(C2CCN(c3cccc(C(F)(F)F)n3)CC2)cc1` [Example 4.19], 100 nM. In the case of `CC(=O)N[C@@H](C)c1ccc(C2CCN(c3ncc4c(C)n[nH]c4n3)CC2)cc1` [Example 4.20], the IC50 is 1300 nM.

As to `CC(=O)N[C@@H](C)c1ccc(C2CCN(c3nccc(-c4ccccc4)n3)CC2)cc1` [Example 4.21], the half-maximal inhibitory concentration (IC50) came out at 520 nM.

Regarding `CC(=O)N[C@@H](C)c1ccc(C2CCN(c3cc(-c4ccccc4)ncn3)CC2)cc1` [Example 4.22], the IC50 is 1100 nM. Under `CC(=O)N[C@@H](C)c1ccc(C2CCN(c3nc(C)c4ccccc4n3)CC2)cc1` [Example 4.23] stands 720 nM; under `CC(=O)N[C@@H](C)c1ccc(C2CCN(c3ncnc4ccsc34)CC2)cc1` [Example 4.24], 2100 nM.

(Values after patent US9006450B2 (Boehringer Ingelheim International GmbH, priority 2010, dated 2015).)
